Experimental data reported in patent US20250263400A1, “GCN2 MODULATOR COMPOUNDS” (Alesta Therapeutics BV, priority 2022, published 2025).

Biological target: GCN2 (Homo sapiens (Human), UniProt Q9P2K8)
Experiment: GCN2 enzyme assay
Format: biochemical
Experimental: For GCN2 enzyme assays, testing compounds were prepared at proper concentrations in DMSO solution. IC50 values were calculated from a remaining activity using read conversion ratio.

Chain of GCN2 (Q9P2K8 whole entry, species assumed): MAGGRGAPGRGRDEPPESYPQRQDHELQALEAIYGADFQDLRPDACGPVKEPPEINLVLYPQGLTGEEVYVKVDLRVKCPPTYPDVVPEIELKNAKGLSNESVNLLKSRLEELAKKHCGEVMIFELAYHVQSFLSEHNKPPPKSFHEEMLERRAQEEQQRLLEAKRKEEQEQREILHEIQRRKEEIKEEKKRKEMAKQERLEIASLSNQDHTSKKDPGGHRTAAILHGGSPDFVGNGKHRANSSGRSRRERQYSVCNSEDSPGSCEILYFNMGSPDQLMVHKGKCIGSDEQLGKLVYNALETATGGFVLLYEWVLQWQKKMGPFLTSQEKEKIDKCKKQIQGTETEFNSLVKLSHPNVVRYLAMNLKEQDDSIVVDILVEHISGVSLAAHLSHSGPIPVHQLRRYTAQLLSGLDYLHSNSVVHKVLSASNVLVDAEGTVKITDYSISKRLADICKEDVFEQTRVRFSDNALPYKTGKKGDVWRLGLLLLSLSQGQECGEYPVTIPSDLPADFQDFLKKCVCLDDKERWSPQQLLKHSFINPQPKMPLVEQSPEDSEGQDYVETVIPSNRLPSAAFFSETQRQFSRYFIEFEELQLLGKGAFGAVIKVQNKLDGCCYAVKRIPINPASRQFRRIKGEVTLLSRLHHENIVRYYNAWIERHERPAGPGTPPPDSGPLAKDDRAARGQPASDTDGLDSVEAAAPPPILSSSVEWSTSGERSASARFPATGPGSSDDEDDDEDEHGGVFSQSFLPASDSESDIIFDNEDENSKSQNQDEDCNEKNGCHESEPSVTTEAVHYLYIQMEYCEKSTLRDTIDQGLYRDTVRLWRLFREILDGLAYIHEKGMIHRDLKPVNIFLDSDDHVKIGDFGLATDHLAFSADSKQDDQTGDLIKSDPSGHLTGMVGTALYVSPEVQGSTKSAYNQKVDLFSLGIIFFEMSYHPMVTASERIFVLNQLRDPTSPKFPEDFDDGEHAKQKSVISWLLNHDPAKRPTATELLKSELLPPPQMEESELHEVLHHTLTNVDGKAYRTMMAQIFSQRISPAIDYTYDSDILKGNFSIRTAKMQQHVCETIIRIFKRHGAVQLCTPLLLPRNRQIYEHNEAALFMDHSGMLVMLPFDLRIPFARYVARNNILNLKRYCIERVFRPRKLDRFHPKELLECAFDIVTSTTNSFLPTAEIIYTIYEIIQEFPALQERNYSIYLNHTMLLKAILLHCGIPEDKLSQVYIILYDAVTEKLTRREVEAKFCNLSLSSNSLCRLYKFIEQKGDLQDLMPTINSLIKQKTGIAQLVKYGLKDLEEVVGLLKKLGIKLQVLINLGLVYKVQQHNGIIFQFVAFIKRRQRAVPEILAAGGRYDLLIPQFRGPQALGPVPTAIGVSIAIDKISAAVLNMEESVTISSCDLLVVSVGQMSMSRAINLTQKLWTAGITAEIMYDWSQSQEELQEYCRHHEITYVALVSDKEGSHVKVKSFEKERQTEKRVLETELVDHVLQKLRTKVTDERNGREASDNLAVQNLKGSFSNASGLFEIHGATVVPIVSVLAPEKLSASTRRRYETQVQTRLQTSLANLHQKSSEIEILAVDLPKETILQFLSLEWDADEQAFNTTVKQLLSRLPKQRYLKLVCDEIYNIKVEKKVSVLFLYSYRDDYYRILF

| SMILES | IC50 [nM] |
| --- | --- |
| Nc1ncc2cc(-c3c(Cl)cnc(NS(=O)(=O)c4ccccc4Cl)c3Cl)ccc2n1 [Compound 73, N-(4-(2-aminoquinazolin-6-yl)-3,5-dichloropyridin-2-yl)-2-chlorobenzenesulfon-amide] | 19.4 |
| COCCNC[C@@H]1CC[C@@H](Nc2ncc3cc(-c4c(F)ccc(NS(=O)(=O)c5cc(Cl)cc(CO)c5Cl)c4F)ccc3n2)C1 [Compound 2, 2,5-dichloro-N-(2,4-difluoro-3-(2-(((1R,3R)-3-(((2-methoxyethyl)ami-no)methyl)cyclopent-yl)amino)quina-zolin-6-yl)phenyl)-3-(hydroxymethyl)ben-zenesulfonamide] | 2.63 |
| COCCNC(=O)[C@H]1C[C@H](Nc2ncc3cc(-c4c(F)ccc(NS(=O)(=O)c5cc(Cl)cc(CO)c5Cl)c4F)ccc3n2)CN1 [Compound 3, (2R,4S)-4-((6-(3-((2,5-dichloro-3-(hydroxymethyl)phe-nyl)sulfonamido)-2,6-difluorophenyl)quin-zolin-2-yl)amino)-N-(2-methoxyethyl)pyr-rolidine-2-carboxamide] | 5.43 |
| NC(=O)[C@@H]1CC[C@@H](Nc2ncc3cc(-c4c(F)ccc(NS(=O)(=O)c5cc(Cl)cc(CO)c5Cl)c4F)ccc3n2)C1 [Compound 11, (1R,3R)-3-((6-(3-((2,5-dichloro-3-(hydroxymethyl)phe-nyl)sulfonamido)-2,6-difluorophenyl)quina-zolin-2-yl)amino)cyclopent-ane-1-carboxamide] | 2.12 |
| COc1ncc(Cl)cc1S(=O)(=O)Nc1ccc(F)c(-c2ccc3nc(N[C@H]4CC[C@H](N(C)C)CC4)ncc3c2)c1F [Compound 61, 5-chloro-N-(3-(2-(((1R,4R)-4-(dimethylamino)cy-clohexyl)amino)quinazolin-6-yl)-2,4-difluorophenyl)-2-methoxypyridine-3-sulfonamide] | 2.35 |
| CN[C@H]1CC[C@H](Nc2ncc3cc(-c4c(F)ccc(NS(=O)(=O)c5ccccc5Cl)c4F)ccc3n2)CC1 [Compound 66, 2-chloro-N-(2,4-difluoro-3-(2-(((1R,4R)-4-(methylamino)cyclo-hexyl)amino)quina-zolin-6-yl)phenyl)benzene-sulfonamide] | 63.2 |

Other lines, results leading:

| IC50 [nM] | SMILES |
| --- | --- |
| 11.4 | COCCNC(=O)N1CC[C@@H](Nc2ncc3cc(-c4c(F)ccc(NS(=O)(=O)c5cc(Cl)cnc5OC)c4F)ccc3n2)C1 [Compound 5, (R)-3-((6-(3-((5-chloro-2-methoxypyridine)-3-sulfonamido)-2,6-difluorophenyl)quina-zolin-2-yl)amino)-N-(2-methoxyethyl)pyr-rolidine-1-carboxamide] |
| 6.66 | COc1ncc(Cl)cc1S(=O)(=O)Nc1ccc(F)c(-c2ccc3nc(NC4CCS(=O)(=O)C4)ncc3c2)c1F (stereo not shown) [Compound 23, 5-chloro-N-(3-(2-((1,1-dioxidotetrahydro-thiophen-3-yl)amino)quinazo-lin-6-yl)-2,4-difluorophenyl)-2-methoxypyridine-3-sulfonamide] |
| 10.2 | COCCNC(=O)[C@H]1CC[C@H](Nc2ncc3cc(-c4c(F)ccc(NS(=O)(=O)c5cc(Cl)cnc5OC)c4F)ccc3n2)CC1 [Compound 20, (1R,4R)-4-((6-(3-((5-chloro-2-methoxypyridine)-3-sulfonamido)-2,6-difluorophenyl)quina-zolin-2-yl)amino)-N-(2-methoxyethyl)cyclo-hexane-1-carboxamide] |
| 34.3 | CCc1cc(-c2c(F)ccc(NS(=O)(=O)c3cc(Cl)cnc3OC)c2F)cc2cnc(N[C@@H]3CC[C@@H](C(=O)NCCOC)C3)nc12 [Compound 54, (1R,3R)-3-((6-(3-((5-chloro-2-methoxypyridine)-3-sulfonamido)-2,6-difluorophenyl)-8-ethylquinazolin-2-yl)amino)-N-(2-methoxyethyl)cyclo-pentane-1-carboxamide] |
